Assay results as given in ChEMBL document CHEMBL5579895, “Discovery of TYRA-300: First Oral Selective FGFR3 Inhibitor for the Treatment of Urothelial Cancers and Achondroplasia” (J Med Chem, 2024).

What was measured:
RT112/84 [1] = test: animal or person; type: functional, Homo sapiens; conditions: Mus musculus, RT112/84, 504 h, route po, time 21 day, read-out: TGI
Description: Antitumor activity against human RT112/84 cells harboring FGFR3 V555M mutant xenografted in Balb/c nude mouse model at 12.5 mg/kg, po bid treated for 21 days relative to control

RT112/84 [2] = test: cells; type: functional, cell-based; conditions: Homo sapiens
Description: Inhibition of cell viability in human RT112/84 cells harboring FGFR3/TACC3 fusion incubated for 72 to 120 hrs by Cell Titer Glo assay

RT112/84 [3] = test: cells; type: functional, cell-based; conditions: Homo sapiens; remark: listed apart in the source
Description: Inhibition of cell viability in human RT112/84 cells harboring FGFR3 V555M mutant incubated for 72 to 120 hrs by Cell Titer Glo assay

KG-1 = test: Inhibition of cell viability in human KG-1 cells harboring FGFR1-fusion incubated for 72 to 120 hrs by Cell Titer Glo assay; type: functional, cell-based
RT112/84 [4] = test: animal or person; type: functional, Homo sapiens; conditions: Mus musculus, RT112/84, 504 h, route po, time 21 day, read-out: TGI; remark: listed apart in the source
Description: Antitumor activity against human RT112/84 cells harboring FGFR3/TACC3 fusion xenografted in Balb/c nude mouse model at 12.5 mg/kg, po bid treated for 21 days relative to control

[5] = Inhibition of recombinant BCR/FGFR4 (unknown origin) transduced in mouse BaF3 cells incubated for 48 hrs by Cell Titer Glo assay; type: cell-based; conditions: BaF3, 48 h
RT-4 = test: Inhibition of cell viability in human RT-4 cells harboring FGFR3/TACC3 fusion incubated for 72 to 120 hrs by Cell Titer Glo assay; type: functional, cell-based
[6] = Inhibition of cell viability in human UMUC14 cells harboring FGFR3 V555M mutant incubated for 72 to 120 hrs by Cell Titer Glo assay; type: functional, cell-based
[7] = Inhibition of recombinant BCR/FGFR1 (unknown origin) transduced in mouse BaF3 cells incubated for 48 hrs by Cell Titer Glo assay; type: cell-based; conditions: BaF3, 48 h
[8] = Inhibition of recombinant FGFR3/BAIAP2L1 (unknown origin) transduced in mouse BaF3 cells incubated for 48 hrs by Cell Titer Glo assay; type: cell-based; conditions: BaF3, 48 h
DMS-114 = test: Inhibition of cell viability in human DMS-114 cells harboring FGFR1-amplification incubated for 72 to 120 hrs by Cell Titer Glo assay; type: functional, cell-based
[9] = Inhibition of recombinant BCR/FGFR2 (unknown origin) transduced in mouse BaF3 cells incubated for 48 hrs by Cell Titer Glo assay; type: cell-based; conditions: BaF3, 48 h
[10] = Inhibition of cell viability in human UMUC14 cells harboring FGFR3 S249C mutant incubated for 72 to 120 hrs by Cell Titer Glo assay; type: functional, cell-based
RT112/84 [11] = test: Antitumor activity against human RT112/84 cells harboring FGFR3/TACC3 fusion xenografted in Balb/c nude mouse model at 15 mg/kg, po bid treated for 21 days relative to control; type: functional; conditions: RT112/84, 504 h, time 21 day, read-out: TGI
[12] = Stability in human hepatocytes assessed as half life at 1 uM incubated upto 180 mins by LC-MS/MS analysis; type: ADME, cell-based, Hepatocyte

IC50 (RT112/84 [2]) [nM]	IC50 (RT112/84 [3]) [nM]	half-life at 1 µM [12] [min]	SMILES	inhibition in vivo at 12.5 mg/kg (RT112/84 [1]) [%]	IC50 (KG-1) [nM]	inhibition in vivo at 12.5 mg/kg (RT112/84 [4]) [%]	IC50 [5] [nM]	IC50 (RT-4) [nM]	IC50 [6] [nM]	IC50 [7] [nM]	IC50 [8] [nM]	IC50 (DMS-114) [nM]	IC50 [9] [nM]	IC50 [10] [nM]	inhibition in vivo at 15 mg/kg (RT112/84 [11]) [%]
15	42	> 100	C[C@@H](Oc1ccc2[nH]nc(-c3ccc(N4CC5(CCN(S(C)(=O)=O)CC5)C4)nc3)c2c1)c1c(Cl)cncc1Cl		1570		147			212	14		127	15	64
38	89	18	C[C@@H](Oc1ccc2[nH]nc(-c3ccc(N4CC5(C4)CN(S(C)(=O)=O)C5)nc3)c2c1)c1c(Cl)cnnc1Cl		193			144		179	8.6	3000	67	1580	

SMILES	IC50 (RT112/84 [2]) [nM]	IC50 (RT112/84 [3]) [nM]	half-life at 1 µM [12] [min]	inhibition in vivo at 12.5 mg/kg (RT112/84 [1]) [%]	IC50 (KG-1) [nM]	inhibition in vivo at 12.5 mg/kg (RT112/84 [4]) [%]	IC50 [5] [nM]	IC50 (RT-4) [nM]	IC50 [6] [nM]	IC50 [7] [nM]	IC50 [8] [nM]	IC50 (DMS-114) [nM]	IC50 [9] [nM]	IC50 [10] [nM]	inhibition in vivo at 15 mg/kg (RT112/84 [11]) [%]
COc1cc(OC)cc(N(CCNC(C)C)c2ccc3ncc(-c4cnn(C)c4)nc3c2)c1 [ERDAFITINIB]	3.6	2150		12	2.1	73	11	4.4	> 3000	5.2	2.6	11	3.8	3.8	
